Assay results published in patent US20220016101A1 (ACADIA Pharmaceuticals Inc., priority 2018, published 2022).
Where “and” joins values, the source holds several entries; their conditions need not be identical. Equal entries are not always repeated.

Assays:
[1] = system: patients with MDD and an inadequate response to an SSRI or SNRI; assay: HAMD-17 total score, adjunctive pimavanserin in MDD (Study ACP-103-042); format: in vivo, human; details: for Response Rate: 50% or greater reduction on HAMD-17
Description: “Hamilton Depression Scale 17-item (HAMD-17)” is a multiple item questionnaire used to provide an indication of depression, and is known to those skilled in the art. The questionnaire is designed for adults to rate the severity of depression by probing mood, feelings of guilt, suicide ideation, insomnia, work and interests, agitation or retardation, anxiety, weight loss, and somatic symptoms. Each item on the questionnaire is scored on a 3 or 5 point scale, depending on the item, and the total score is compared to the corresponding descriptor. A score of 0-7 is considered to be normal. Scores of 14 or higher indicate moderate, severe, or very severe depression. Assessment time is estimated at 20 minutes. […] Key endpoints were change from baseline to the end of each stage for the HAMD-17 total score and SDS score. The study consisted of an 8- to 21-day screening period, a 10-week double-blind treatment period, and a safety follow up period of up to 30 days. Screening assessments consisted of the SAFER Interview ([…] al, Harv Rev Psychiatry. 2013; 21(5):269-74), which included the MADRS, CGI-S, and MGH ATRQ. […] All patients continued on their SSRI or SNRI at a stable dose for the duration of the study. […] Inadequate treatment response was determined through the administration of the MGH ATRQ administered during the SAFER interview. […] Clinic visits occurred weekly from Weeks 1 through 10. The MADRS was administered at screening and baseline. The HAMD-17, SDS, CGI, and KSS were administered at baseline and weekly during the study. Other endpoints such as the SF-12 were administered at baseline and Weeks 5 and 10. Treatment response was defined as a reduction of 50% from baseline for the HAMD-17 total score, and remission was defined as a HAMD-17 total score […] The determination of the subject's status and eligibility for randomization in Stage 2 was made in a double-blind manner.

[2] = system: patients with MDD and an inadequate response to an SSRI or SNRI; assay: HAMD-17 anxiety/somatization subscale score, MDD study; format: in vivo, human; details: for HAMD-17 anxiety/somatization subscale score LSM (SE) Change from Baseline to Week 5: 34 mg QD + SSRI/SNRI
Method: Key endpoints were change from baseline to the end of each stage for the HAMD-17 total score and SDS score.
All patients continued on their SSRI or SNRI at a stable dose for the duration of the study.
(§1) Clinic visits occurred weekly from Weeks 1 through 10. The MADRS was administered at screening and baseline. The HAMD-17, SDS, CGI, and KSS were administered at baseline and weekly during the study. Other endpoints such as the SF-12 were administered at baseline and Weeks 5 and 10. Treatment response was defined as a reduction of 50% from baseline for the HAMD-17 total score, and remission was defined as a HAMD-17 total score
A higher HAMD-17 anxiety/somatization subscale score indicates more severe depression with anxiety symptoms.

[3] = system: patients with MDD and an inadequate response to an SSRI or SNRI; assay: Karolinska Sleepiness Scale (KSS), MDD study; format: in vivo, human; details: Week 5 of Stage 1
Method: “Karolinska Sleepiness Scale (KSS)” is a scale for evaluating subjective sleepiness (Kaida et al. Clinical Neurophysiology 2006, 117, 7, 1574-1581).
as §1

[4] = system: adults with Parkinson's disease and depression; assay: Adverse events, open-label study in Parkinson's disease and depression; format: in vivo, human; details: of the first 31 patients; most common falls, UTI, diarrhea, nausea
Description: Subjects can receive treatment as either monotherapy or adjunctively if inadequately controlled with SSRI/SNRI monotherapy. A primary endpoint of the study is change from baseline to Week 8 in the Hamilton Depression Scale 17-item (HAMD-17) total score. Secondary endpoints include Clinical Global Impression (CGI) scales (improvement and severity), Scale of Outcomes in PD-Sleep (SCOPA), and quality of life as measured by EuroQol-5 dimensions-5 levels (EQ-5D-5L).
Adverse events were classified into standard terminology using the Medical Dictionary for Regulatory Activities (MedDRA). Treatment-emergent adverse events (TEAEs), TEAEs leading to discontinuation, TEAEs related to study drug, TEAEs by maximum severity, serious adverse events (SAEs), and SAEs related to study drug were summarized.

serotonin transporter = serotonin transporter (Homo sapiens, UniProt P31645); assay: Receptor profile: affinity (Ki) at SERT; format: binding; details: data on file
Sequence of serotonin transporter (P31645 whole entry): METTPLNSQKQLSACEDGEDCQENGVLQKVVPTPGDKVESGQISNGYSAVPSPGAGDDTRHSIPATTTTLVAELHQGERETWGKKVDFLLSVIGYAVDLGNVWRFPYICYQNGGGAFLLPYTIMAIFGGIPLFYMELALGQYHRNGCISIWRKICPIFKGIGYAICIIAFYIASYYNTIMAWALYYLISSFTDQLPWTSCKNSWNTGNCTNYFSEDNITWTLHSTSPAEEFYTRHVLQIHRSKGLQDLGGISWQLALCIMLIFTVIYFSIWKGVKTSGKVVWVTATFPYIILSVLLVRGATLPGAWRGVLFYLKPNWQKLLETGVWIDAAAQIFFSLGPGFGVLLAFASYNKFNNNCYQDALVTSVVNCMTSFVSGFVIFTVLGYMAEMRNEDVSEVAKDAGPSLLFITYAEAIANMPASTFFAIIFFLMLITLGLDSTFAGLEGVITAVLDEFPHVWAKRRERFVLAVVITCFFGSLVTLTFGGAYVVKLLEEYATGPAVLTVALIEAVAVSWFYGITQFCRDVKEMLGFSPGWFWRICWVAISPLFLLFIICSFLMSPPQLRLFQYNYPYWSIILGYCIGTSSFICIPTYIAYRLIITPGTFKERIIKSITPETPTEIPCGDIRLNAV

dopamine transporter = dopamine transporter (Homo sapiens, UniProt Q01959); assay: Receptor profile: affinity (Ki) at DAT; format: binding; details: data on file
Sequence of dopamine transporter (Q01959 whole entry): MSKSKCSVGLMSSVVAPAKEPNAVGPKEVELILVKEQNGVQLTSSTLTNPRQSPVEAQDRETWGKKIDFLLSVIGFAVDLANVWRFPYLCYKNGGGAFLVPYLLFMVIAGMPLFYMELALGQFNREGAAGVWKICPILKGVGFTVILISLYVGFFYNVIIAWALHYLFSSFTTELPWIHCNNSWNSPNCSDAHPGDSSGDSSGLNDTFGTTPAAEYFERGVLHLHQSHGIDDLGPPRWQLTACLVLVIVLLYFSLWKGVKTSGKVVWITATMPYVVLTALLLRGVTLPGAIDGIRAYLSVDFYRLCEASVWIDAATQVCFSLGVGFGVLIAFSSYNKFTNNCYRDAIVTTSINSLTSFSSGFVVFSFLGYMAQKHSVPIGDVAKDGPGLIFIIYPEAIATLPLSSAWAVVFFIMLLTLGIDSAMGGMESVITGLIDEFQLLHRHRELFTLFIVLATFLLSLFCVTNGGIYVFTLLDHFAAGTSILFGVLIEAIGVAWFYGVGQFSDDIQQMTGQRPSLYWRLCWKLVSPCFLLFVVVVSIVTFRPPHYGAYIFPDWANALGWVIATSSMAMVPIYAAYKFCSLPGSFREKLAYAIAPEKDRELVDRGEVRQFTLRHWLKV

[5] = system: patients with MDD and an inadequate response to an SSRI or SNRI; assay: Safety and tolerability (adverse events), Study ACP-103-042
[6] = Stage 1, subgroup baseline anxiety/somatization subscale score ≥7
[7] = Stage 2, subgroup baseline anxiety/somatization subscale score ≥7
[8] = Stage 1, subgroup baseline subscale score ≥7
[9] = Stage 2, subgroup baseline subscale score ≥7

With `CC(C)COc1ccc(CNC(=O)N(Cc2ccc(F)cc2)C2CCN(C)CC2)cc1` [pimavanserin, N-(4-Fluorophenylmethyl)-N-(1-methylpiperidin-4-yl)-N′-(4-(2-methylpropyloxy)phenylmethyl)carbamide] the NNT for remission ([1]; Stage 1) was 8.1, the “early improvement (reduction from baseline in HAMD-17 total score of 20% or more) vs placebo” value ([1]; Stage 1) was “early improvement at week 1 was observed” and the “response and remission rates vs placebo” value ([1]; Stage 1, Week 2 through Week 5) was “significantly (p<0.05) greater”. For the same compound, the “HAMD-17 total score LSmean (SE) change from baseline to Week 5” value ([1]; Stage 1, 34 mg QD + SSRI/SNRI) was −11.5 (0.94), the “Remission Rate” value ([1]; Stage 1, 34 mg QD + SSRI/SNRI) was 23.5% and the “HAMD-17 total score LSmean (SE) change from baseline to Week 5” value ([1]; Stage 1, 34 mg QD + SSRI/SNRI, listed as Pimavanserin) was −11.5. For the same compound, the “Response Rate” value ([1]; Stage 1, 34 mg QD + SSRI/SNRI) was 52.9%, the NNT for response ([1]; Stage 1, response = reduction of 50% from baseline HAMD-17 total score) was 3.6 and the “HAMD-17 total score Diff in LSM (SE) vs placebo” value [1, 6] was −6.6 (1.64). The “HAMD-17 total score effect size (Cohen's d)” value [1, 6] was 0.940, the “HAMD-17 total score LSM (SE) Change from Baseline to Week 5” value ([1]; Stage 1, subgroup baseline anxiety/somatization subscale score ≥7, 34 mg QD + SSRI/SNRI) was −14.1 (1.39) and the “HAMD-17 total score effect size (Cohen's d)” value ([1]; Stage 1 Week 5, 34 mg QD + SSRI/SNRI) was 0.626 and ~0.6. For the same compound, the “HAMD-17 total score effect size (Cohen's d)” value ([1]; Stage 1 Week 5, 34 mg QD + SSRI/SNRI, listed as Pimavanserin) was 0.626, the “HAMD-17 total score LSM change from baseline to Week 5” value ([1]; Stage 2 (placebo non-responders re-randomized), 34 mg QD + SSRI/SNRI) was −2.8 and the “HAMD-17 Cohen's d” value ([1]; Stage 2, 34 mg QD + SSRI/SNRI) was −0.107. For the same compound, the “HAMD-17 difference between pimavanserin and placebo (delta)” value ([1]; Stage 2, 34 mg QD + SSRI/SNRI) was 0.5, the “Remission Rate” value ([1]; Stage 2, 34 mg QD + SSRI/SNRI) was 3.4% and the “Response Rate” value ([1]; Stage 2, 34 mg QD + SSRI/SNRI) was 6.9%. The “HAMD-17 total score Diff in LSM (SE) vs placebo” value [1, 7] was 0.9 (1.84), the “HAMD-17 total score effect size (Cohen's d)” value [1, 7] was −0.173 and the “HAMD-17 total score LSM (SE) Change from Baseline to Week 5” value ([1]; Stage 2, subgroup baseline anxiety/somatization subscale score ≥7, 34 mg QD + SSRI/SNRI) was −3.4 (1.25). For the same compound, the “HAMD-17 effect size, treatment difference in LSmean change from baseline to Week 10” value ([1]; continuous treatment for 10 weeks in Stages 1 and 2, 34 mg QD + SSRI/SNRI) was 0.497, the “HAMD-17 total LSmean difference [standard error] pimavanserin vs placebo” value ([1]; overall (weighted Stage 1 and Stage 2), 34 mg QD + SSRI/SNRI) was -1.7 (0.85) and the “HAMD-17 anxiety/somatization subscale score Diff in LSM (SE) vs placebo” value ([2]; Stage 1) was −1.5 (0.41). For the same compound, the “HAMD-17 anxiety/somatization subscale score Effect Size (Cohen's d)” value ([2]; Stage 1) was 0.634, the “HAMD-17 anxiety/somatization subscale score LSM (SE) Change from Baseline to Week 5” value ([2]; Stage 1) was −3.7 (0.36) and the “HAMD-17 anxiety/somatization subscale score LSM (SE) Change from Baseline to Week 5” value [2, 6] was −5.0 (0.56). For the same compound, the “HAMD-17 anxiety/somatization subscale score Diff in LSM (SE) vs placebo” value [2, 8] was −2.2 (0.66), the “HAMD-17 anxiety/somatization subscale score Effect Size (Cohen's d)” value [2, 8] was 0.781 and the “HAMD-17 anxiety/somatization subscale score Diff in LSM (SE) vs placebo” value ([2]; Stage 2) was 0.0 (0.48). The “HAMD-17 anxiety/somatization subscale score Effect Size (Cohen's d)” value ([2]; Stage 2) was −0.007, the “HAMD-17 anxiety/somatization subscale score LSM (SE) Change from Baseline to Week 5” value ([2]; Stage 2) was −0.6 (0.33) and the “HAMD-17 anxiety/somatization subscale score LSM (SE) Change from Baseline to Week 5” value [2, 7] was −1.3 (0.44). The “HAMD-17 anxiety/somatization subscale score Diff in LSM (SE) vs placebo” value [2, 9] was 0.1 (0.66), the “HAMD-17 anxiety/somatization subscale score Effect Size (Cohen's d)” value [2, 9] was −0.067 and the KSS effect size [3] was 0.627. For the same compound, the “KSS LSmean difference from baseline for pimavanserin vs. placebo” value ([3]; daytime sleepiness) was −1.1 (0.30), the “patients reporting adverse events” value [4] was 13 and the Ki (serotonin transporter) was over 1000 nM. The Ki (dopamine transporter) was over 1000 nM, the “Discontinuations due to adverse events” value ([5]; 34 mg QD + SSRI/SNRI) was 1.2% and 1.9% and the “rates of daytime sleepiness, weight gain, metabolic laboratory tests, and sexual dysfunction” value ([5]; 34 mg QD + SSRI/SNRI) was “low rates”. For the same compound, the tolerability ([5]; 34 mg QD + SSRI/SNRI) was “generally well-tolerated”, the tolerability ([5]; 34 mg QD + SSRI/SNRI, listed as Pimavanserin) was “well tolerated” and the “subjects reporting serious adverse events” value ([5]; deemed not related to study drug) was “One subject”.
